Assay results taken from article PMC6273715, “Synthesis and Evaluation of New Benzodioxole- Based Thiosemicarbazone Derivatives as Potential Antitumor Agents” (Molecules, 2016).

What was measured:
BuChE = BuChE (Homo sapiens, UniProt P06276); assay: BuChE inhibition, modified Ellman's method; assay type: biochemical; conditions: for IC50: tested at 5–80 μg/mL
C6 rat glioma cells = assay: MTT cytotoxicity assay, C6; assay type: cell-based; conditions: for cytotoxicity (in words): C6, at the concentrations used; for IC50: Rattus norvegicus, C6, MTT, 24 h, read-out: IC50 C6 Cell Line
Protocol: (§1) C6 Rat glioma and NIH/3T3 mouse embryonic fibroblast cells were incubated in Dulbecco’s Modified Eagle’s Medium (DMEM) (Sigma, Deisenhofen, Germany) supplemented with 10% fetal calf serum (Gibco, Paisley, UK). A549 Human lung adenocarcinoma cells were incubated in 90% RPMI supplemented with 10% fetal bovine serum (Gibco). […] Exponentially growing cells were plated at 2 × 10^4 cells/mL into 96-well microtiter tissue culture plates (Nunc, Roskilde, Denmark) and incubated for 24 h before the addition of the drugs (the optimum cell number for cytotoxicity assays was determined in preliminary experiments).
(§2) The level of cellular 3-(4,5-dimethylthiazol-2-yl)-2,5-diphenyltetrazolium bromide (MTT) (Sigma) reduction was quantified as previously described in the literature with small modifications. […] At the end of this period, MTT was added to a final concentration of 0.5 mg/mL and the cells were incubated for 4 h at 37 °C. After the medium was removed, the formazan crystals formed by MTT metabolism were solubilized by addition of 200 µL DMSO to each well and absorbance was read at 540 nm with a microtiter plate spectrophotometer (Bio-Tek Plate Reader, Winooski, VT, USA). Every concentration was repeated in three wells.

[1] = test system: A549 human lung adenocarcinoma cells; assay: MTT cytotoxicity assay, A549; assay type: cell-based; conditions: for cytotoxicity (in words): A549, at the concentrations used; for IC50: Homo sapiens, A549, MTT, 24 h, read-out: IC50 A549 Cell Line
Protocol: as §1, §2

AChE = AChE (Electrophorus electricus, UniProt O42275); assay: biochemical; assay type: biochemical; conditions: for IC50: tested at 5–80 μg/mL
Sequence of AChE (O42275 24-633): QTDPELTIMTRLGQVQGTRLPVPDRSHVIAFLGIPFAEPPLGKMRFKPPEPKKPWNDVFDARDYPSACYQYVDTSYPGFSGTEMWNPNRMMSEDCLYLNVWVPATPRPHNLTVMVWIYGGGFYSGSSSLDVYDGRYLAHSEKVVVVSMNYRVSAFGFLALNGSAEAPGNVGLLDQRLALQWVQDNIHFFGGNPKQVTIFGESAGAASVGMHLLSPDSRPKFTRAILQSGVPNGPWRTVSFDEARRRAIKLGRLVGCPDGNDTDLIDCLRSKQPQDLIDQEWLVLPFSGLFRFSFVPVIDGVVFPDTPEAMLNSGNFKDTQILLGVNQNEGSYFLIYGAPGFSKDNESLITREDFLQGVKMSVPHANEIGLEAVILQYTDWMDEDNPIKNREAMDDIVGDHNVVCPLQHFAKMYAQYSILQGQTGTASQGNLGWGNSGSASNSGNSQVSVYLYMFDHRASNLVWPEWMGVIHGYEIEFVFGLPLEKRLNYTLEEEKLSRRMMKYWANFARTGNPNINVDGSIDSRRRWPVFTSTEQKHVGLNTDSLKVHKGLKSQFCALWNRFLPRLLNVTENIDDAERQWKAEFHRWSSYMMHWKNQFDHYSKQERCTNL

[2] = test system: NIH/3T3 mouse embryonic fibroblast cells; assay: MTT cytotoxicity assay, NIH/3T3; assay type: cell-based; conditions: NIH3T3, 24 h, read-out: IC50 NIH/3T3 Cell Line
Protocol: C6 Rat glioma and NIH/3T3 mouse embryonic fibroblast cells were incubated in Dulbecco’s Modified Eagle’s Medium (DMEM) (Sigma, Deisenhofen, Germany) supplemented with 10% fetal calf serum (Gibco, Paisley, UK). A549 Human lung adenocarcinoma cells were incubated in 90% RPMI supplemented with 10% fetal bovine serum (Gibco). All media were supplemented with 100 IU/mL penicillin-streptomycin (Gibco) and cells were incubated at 37 °C in a humidified atmosphere of 95% air and 5% CO2. Exponentially growing cells were plated at 2 × 10^4 cells/mL into 96-well microtiter tissue culture plates (Nunc, Roskilde, Denmark) and incubated for 24 h before the addition of the drugs (the optimum cell number for cytotoxicity assays was determined in preliminary experiments). The stock solutions of the compounds were prepared in dimethyl sulfoxide (DMSO; Sigma Aldrich, Poole, UK) and further dilutions were made with fresh culture medium (the concentration of DMSO in the final culture medium was <0.1% which had no effect on the cell viability).
as §2

C6 cells = assay: DNA synthesis inhibition (BrdU ELISA), C6; assay type: cell-based, rat; conditions: C6, compound at its IC50, 24 h
Protocol: (§3) The immunostaining procedure was carried out with specific anti-BrdU antibodies in the S-phase of the cell cycle. DNA synthesis inhibitory effects of all compounds were evaluated for 24 h. A549 and C6 cell lines were incubated with three different concentrations of the compounds that were determined according to their IC50 values. Cisplatin was used as a positive control.
(§4) Analysis of DNA synthesis was measured by a Cell Proliferation ELISA, BrdU (colorimetric) kit (Roche, Mannheim, Germany). This immunostaining procedure is based on measuring the incorporation of bromodeoxyuridine (BrdU) into nuclear DNA in place of thymidine during the S-phase of the cell cycle using specific anti-BrdU antibodies. […] Firstly cells were seeded into 96 well flat-bottomed microtiter plates at a density of 2 × 10^3. […] Microtiter plates were incubated at 37 °C in a 5% CO2/95% air humidified atmosphere for 24 h. Cells were labeled with 10 µL BrdU solution for 2 h and then fixed. Anti-BrdU-POD (100 µL) was added and incubated for 90 min. Finally, wells were washed with BPS and cells were incubated with substrate. Absorbance of the samples was measured with an ELX808-IU Bio-Tek apparatus at 492 nm. All experiments were repeated two times. For each compound dose, dublicate wells were used.

A549 cells = assay: DNA synthesis inhibition (BrdU ELISA), A549; assay type: cell-based, human; conditions: A549, compound at its IC50, 24 h
Protocol: as §3, §4

Sequence of BuChE (P06276 29-602): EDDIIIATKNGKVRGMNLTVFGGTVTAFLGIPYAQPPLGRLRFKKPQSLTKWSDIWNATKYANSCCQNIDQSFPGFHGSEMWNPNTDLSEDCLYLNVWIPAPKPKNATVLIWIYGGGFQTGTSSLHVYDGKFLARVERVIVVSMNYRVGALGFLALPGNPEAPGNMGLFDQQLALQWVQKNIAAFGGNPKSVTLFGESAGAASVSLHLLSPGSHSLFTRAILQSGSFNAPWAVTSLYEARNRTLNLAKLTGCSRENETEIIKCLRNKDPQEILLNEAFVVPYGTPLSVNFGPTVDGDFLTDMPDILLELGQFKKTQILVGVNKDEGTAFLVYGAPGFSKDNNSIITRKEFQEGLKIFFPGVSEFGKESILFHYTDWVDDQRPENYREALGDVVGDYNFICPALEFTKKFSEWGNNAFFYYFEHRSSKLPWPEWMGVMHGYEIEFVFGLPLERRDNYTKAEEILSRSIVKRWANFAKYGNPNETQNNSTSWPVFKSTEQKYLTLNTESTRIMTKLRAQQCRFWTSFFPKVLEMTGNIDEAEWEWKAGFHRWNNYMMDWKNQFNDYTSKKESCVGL

`S=C(NN=Cc1ccc(Cl)cc1)Nc1ccc2c(c1)OCO2` [Compound 7, 4-(1,3-Benzodioxole-5-yl)-1-(4-chlorobenzylidene)thiosemicarbazide] was tested, and the “inhibition on BuChE (in words)” value (BuChE) was “weak inhibition”, the IC50 (BuChE) was > 240 µM and the “cytotoxicity (in words)” value (C6 rat glioma cells) was “no significant cytotoxicity”. The IC50 (C6 rat glioma cells) was > 150 µM, the “cytotoxicity (in words)” value [1] was “no significant cytotoxicity” and the IC50 [1] was > 150 µM. For the same molecule, the IC50 (AChE) was > 240 µM and the IC50 [2] was 9.5 ± 2.5 µM.
`S=C(NN=Cc1ccc(Br)cc1)Nc1ccc2c(c1)OCO2` [Compound 8, 4-(1,3-Benzodioxole-5-yl)-1-(4-bromobenzylidene)thiosemicarbazide] was tested, and the “inhibition on BuChE (in words)” value (BuChE) was “weak inhibition”, the IC50 (BuChE) was > 212 µM and the “cytotoxicity (in words)” value (C6 rat glioma cells) was “no significant cytotoxicity”. The IC50 (C6 rat glioma cells) was > 132 µM, the “cytotoxicity (in words)” value [1] was “no significant cytotoxicity” and the IC50 [1] was > 132 µM. For the same molecule, the IC50 (AChE) was > 212 µM and the IC50 [2] was 9.16 ± 2.47 µM.
`Fc1ccc(C=NNC(=S)Nc2ccc3c(c2)OCO3)cc1` [Compound 6, 4-(1,3-Benzodioxole-5-yl)-1-(4-fluorobenzylidene)thiosemicarbazide] was tested, and the IC50 (BuChE) was > 213 µM, the “cytotoxicity (in words)” value (C6 rat glioma cells) was “no significant cytotoxicity” and the IC50 (C6 rat glioma cells) was > 158 µM. The “cytotoxicity (in words)” value [1] was “no significant cytotoxicity”, the IC50 [1] was > 158 µM and the IC50 (AChE) was > 252 µM. The IC50 [2] was 2.87 ± 0.05 µM.
With `S=C(NN=Cc1ccccc1)Nc1ccc2c(c1)OCO2` [Compound 1, 4-(1,3-Benzodioxole-5-yl)-1-(benzylidene)thiosemicarbazide] the IC50 (BuChE) was > 213 µM, the “cytotoxicity (in words)” value (C6 rat glioma cells) was “no significant cytotoxicity” and the IC50 (C6 rat glioma cells) was > 167 µM. The “cytotoxicity (in words)” value [1] was “no significant cytotoxicity”, the IC50 [1] was > 167 µM and the IC50 (AChE) was > 267 µM. The IC50 [2] was > 167 µM.
With `S=C(NN=Cc1ccc(Cl)c(Cl)c1)Nc1ccc2c(c1)OCO2` [Compound 9, 4-(1,3-Benzodioxole-5-yl)-1-(3,4-dichlorobenzylidene)thiosemicarbazide] the IC50 (BuChE) was > 213 µM, the “DNA synthesis inhibition percent” value (C6 cells) was 37.71% and the IC50 (C6 rat glioma cells) was 25.3 ± 1.53 µM. For the same molecule, the “DNA synthesis inhibition percent” value (A549 cells) was 27.3%, the IC50 [1] was 51.5 ± 4.95 µM and the IC50 (AChE) was 205 ± 5 µM. The IC50 [2] was > 136 µM.
In the case of `CN(C)c1ccc(C=NNC(=S)Nc2ccc3c(c2)OCO3)cc1` [Compound 4, 4-(1,3-Benzodioxole-5-yl)-1-(4-dimethylaminobenzylidene)thiosemicarbazide], the IC50 (BuChE) is reported as > 213 µM, the “cytotoxicity (in words)” value (C6 rat glioma cells) is reported as “no significant cytotoxicity” and the IC50 (C6 rat glioma cells) is reported as > 146 µM. The “cytotoxicity (in words)” value [1] was “no significant cytotoxicity”, the IC50 [1] was > 146 µM and the IC50 (AChE) was > 234 µM. For the same molecule, the IC50 [2] was > 146 µM.
For `N#Cc1ccc(C=NNC(=S)Nc2ccc3c(c2)OCO3)cc1` [Compound 3, 4-(1,3-Benzodioxole-5-yl)-1-(4-cyanobenzylidene)thiosemicarbazide], the IC50 (BuChE) was > 213 µM, the “DNA synthesis inhibition percent” value (C6 cells) was 54.99% and the IC50 (C6 rat glioma cells) was 49.3 ± 1.15 µM. The “DNA synthesis inhibition percent” value (A549 cells) was 53.24%, the IC50 [1] was 28 ± 1 µM and the “inhibitory activity against AChE (in words)” value (AChE) was “did not show any inhibitory activity”. For the same molecule, the IC50 (AChE) was > 213 µM and the IC50 [2] was > 154 µM.
